In patent US20240246964A1 (Arbutus Biopharma Corporation, priority 2021, published 2024):

Target: human PD-L1 (Homo sapiens (Human), UniProt Q9NZQ7)
Assay: T cell activation luciferase reporter cell culture system (T Cell Activation Assay)
Assay type: cell-based
Details: luciferase reporter assay; PD-L1 aAPC/CHO-K1 cells with PD-1 effector Jurkat T cells

Sequence of human PD-L1 (Q9NZQ7 19-290): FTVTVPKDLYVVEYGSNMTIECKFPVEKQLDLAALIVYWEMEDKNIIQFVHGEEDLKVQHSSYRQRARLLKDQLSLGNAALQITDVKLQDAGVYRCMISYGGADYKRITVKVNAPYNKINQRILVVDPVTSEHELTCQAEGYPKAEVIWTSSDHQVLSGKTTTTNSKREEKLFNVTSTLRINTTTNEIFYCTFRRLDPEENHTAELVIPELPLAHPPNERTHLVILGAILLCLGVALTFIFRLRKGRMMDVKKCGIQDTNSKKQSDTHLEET

Row | EC50 [nM] | Structure (SMILES)
1 | 972 | COc1nc(-c2cccc(-c3ccnc(-c4cnn(CC5CNC5)c4)c3Cl)c2Cl)ccc1CNC[C@@H]1CCC(=O)N1 [Cmpd 120, (S)-5-((((6-(3-(2-(1-(azetidin-3-ylmethyl)-1H-pyrazol-4-yl)-3-chloropyridin-4-yl)-2-chlorophenyl)-2-methoxypyridin-3-yl)methyl)amino)methyl)pyrrolidin-2-one]
2 | 131 | COc1cc(-c2nccc(-c3cccc(-c4ccc(CNC[C@@H]5CCC(=O)N5)c(OC)n4)c3Cl)c2Cl)ccc1CNC1(C(=O)O)CC1 [Cmpd 121, (S)-1-((4-(3-chloro-4-(2-chloro-3-(6-methoxy-5-((((5-oxopyrrolidin-2-yl)methyl)amino)methyl)pyridin-2-yl)phenyl)pyridin-2-yl)-2-methoxybenzyl)amino)cyclopropane-1-carboxylic acid]
3 | 55.7 | COc1cc(-c2nccc(-c3cccc(-c4ccc(CNC[C@@H]5CCC(=O)N5)c(OC)n4)c3Cl)c2Cl)ccc1CNC[C@@H]1CCO1 [Cmpd 122, (S)-5-((((6-(2-chloro-3-(3-chloro-2-(3-methoxy-4-(((((S)-oxetan-2-yl)methyl)amino)methyl)phenyl)pyridin-4-yl)phenyl)-2-methoxypyridin-3-yl)methyl)amino)methyl)pyrrolidin-2-one]
4 | 129 | COc1cc(-c2nccc(-c3cccc(-c4cc(Cl)c(CNC[C@@H]5CCC(=O)N5)c(OC)n4)c3Cl)c2Cl)ccc1CNCC(=O)OC(C)C [Cmpd 123, isopropyl (S)-(4-(3-chloro-4-(2-chloro-3-(4-chloro-6-methoxy-5-((((5-oxopyrrolidin-2-yl)methyl)amino)methyl)pyridin-2-yl)phenyl)pyridin-2-yl)-2-methoxybenzyl)glycinate]
5 | 36.3 | COc1cc(-c2nccc(-c3cccc(-c4cc(Cl)c(CNC[C@@H]5CCC(=O)N5)c(OC)n4)c3Cl)c2Cl)cc2c1CN(CCO)CC2 [Cmpd 124, (S)-5-((((4-chloro-6-(2-chloro-3-(3-chloro-2-(2-(2-hydroxyethyl)-8-methoxy-1,2,3,4-tetrahydroisoquinolin-6-yl)pyridin-4-yl)phenyl)-2-methoxypyridin-3-yl)methyl)amino)methyl)pyrrolidin-2-one]
6 | 361 | COc1cc(-c2nccc(-c3cccc(-c4ccc(CNC[C@@H]5CCC(=O)N5)c(OC)n4)c3Cl)c2Cl)ccc1CN[C@@H](C)C(=O)OC(C)C [Cmpd 125, isopropyl (4-(3-chloro-4-(2-chloro-3-(6-methoxy-5-(((((S)-5-oxopyrrolidin-2-yl)methyl)amino)methyl)pyridin-2-yl)phenyl)pyridin-2-yl)-2-methoxybenzyl)-L-alaninate]
7 | 36.8 | COc1cc(-c2nccc(-c3cccc(-c4ccc(CNC[C@@H]5CCC(=O)N5)c(OC)n4)c3Cl)c2Cl)ccc1CNC1CCS(=O)(=O)CC1 [Cmpd 126, (S)-5-((((6-(2-chloro-3-(3-chloro-2-(4-(((1,1-dioxidotetrahydro-2H-thiopyran-4-yl)amino)methyl)-3-methoxyphenyl)pyridin-4-yl)phenyl)-2-methoxypyridin-3-yl)methyl)amino)methyl)pyrrolidin-2-one]
8 | 33.5 | COc1cc(-c2nccc(-c3cccc(-c4ccc(CNC[C@@H]5CCC(=O)N5)c(OC)n4)c3Cl)c2Cl)ccc1CNC1CCOCC1 [Cmpd 127, (S)-5-((((6-(2-chloro-3-(3-chloro-2-(3-methoxy-4-(((tetrahydro-2H-pyran-4-yl)amino)methyl)phenyl)pyridin-4-yl)phenyl)-2-methoxypyridin-3-yl)methyl)amino)methyl)pyrrolidin-2-one]
9 | 21.4 | COc1cc(-c2nccc(-c3cccc(-c4ccc(CNC[C@@H]5CCC(=O)N5)c(OC)n4)c3Cl)c2Cl)cc2c1CN(C[C@H]1C[C@H](O)C1)CC2 [Cmpd 133]
10 | 23 | COc1cc(-c2nccc(-c3cccc(-c4ccc(CNC[C@@H]5CCC(=O)N5)c(OC)n4)c3Cl)c2Cl)cc2c1CN(C[C@H]1C[C@@H](O)C1)CC2 [Cmpd 134]
11 | 84.3 | COc1cc(-c2nccc(-c3cccc(-c4ccc(CN(C)C)c(OC)n4)c3Cl)c2Cl)ccc1CN(C)C [Cmpd 137, 1-(6-(2-chloro-3-(3-chloro-2-(4-((dimethylamino)methyl)-3-methoxyphenyl)pyridin-4-yl)phenyl)-2-methoxypyridin-3-yl)-N,N-dimethylmethanamine]
12 | 5160 | COc1cc(-c2nccc(-c3cccc(-c4ccc(CN(C)CCO)c(OC)n4)c3Cl)c2Cl)ccc1CN(C)CCO [Cmpd 138, 2-(((6-(2-chloro-3-(3-chloro-2-(4-(((2-hydroxyethyl)(methyl)amino)methyl)-3-methoxyphenyl)pyridin-4-yl)phenyl)-2-methoxypyridin-3-yl)methyl)(methyl)amino)ethan-1-ol]
13 | 12.9 | COc1cc(-c2nccc(-c3cccc(-c4ccc(CNC5CCN(C(C)=O)CC5)c(OC)n4)c3Cl)c2Cl)ccc1CNC1CCN(C(C)=O)CC1 [Cmpd 139, 1-(4-(((6-(3-(2-(4-(((1-acetylpiperidin-4-yl)amino)methyl)-3-methoxyphenyl)-3-chloropyridin-4-yl)-2-chlorophenyl)-2-methoxypyridin-3-yl)methyl)amino)piperidin-1-yl)ethan-1-one]
14 | ≥ 10000 | COc1cc(-c2nccc(-c3cccc(-c4ccc(CN(C)C5CCN(C(C)=O)CC5)c(OC)n4)c3Cl)c2Cl)ccc1CN(C)C1CCN(C(C)=O)CC1 [Cmpd 140, 1-(4-(((6-(3-(2-(4-(((1-acetylpiperidin-4-yl)(methyl)amino)methyl)-3-methoxyphenyl)-3-chloropyridin-4-yl)-2-chlorophenyl)-2-methoxypyridin-3-yl)methyl)(methyl)amino)piperidin-1-yl)ethan-1-one]
15 | 127 | COC(=O)CN1CCc2cc(-c3nccc(-c4cccc(-c5ccc(CNC[C@@H]6CCC(=O)N6)c(OC)n5)c4Cl)c3Cl)cc(OC)c2C1 [Cmpd 150, methyl (S)-2-(6-(3-chloro-4-(2-chloro-3-(6-methoxy-5-((((5-oxopyrrolidin-2-yl)methyl)amino)methyl)pyridin-2-yl)phenyl)pyridin-2-yl)-8-methoxy-3,4-dihydroisoquinolin-2(1H)-yl)acetate]
16 | 77.3 | COc1cc(-c2nccc(-c3cccc(-c4ccc(CNC[C@@H]5CCC(=O)N5)c(OC)n4)c3Cl)c2Cl)cc2c1CN(CC(=O)O)CC2 [Cmpd 151, (S)-2-(6-(3-chloro-4-(2-chloro-3-(6-methoxy-5-((((5-oxopyrrolidin-2-yl)methyl)amino)methyl)pyridin-2-yl)phenyl)pyridin-2-yl)-8-methoxy-3,4-dihydroisoquinolin-2(1H)-yl)acetic acid]
17 | 170 | COc1nc(-c2cccc(-c3ccnc(-c4ccc5c(CNC6CCN(C(C)=O)CC6)cn(C)c5c4)c3Cl)c2Cl)ccc1CNC1CCN(C(C)=O)CC1 [Cmpd 277, 1-(4-(((6-(3-(2-(3-(((1-acetylpiperidin-4-yl)amino)methyl)-1-methyl-1H-indol-6-yl)-3-chloropyridin-4-yl)-2-chlorophenyl)-2-methoxypyridin-3-yl)methyl)amino)piperidin-1-yl)ethan-1-one]
18 | 35.8 | COc1cc(-c2nccc(-c3cccc(-c4ccc(CNCCC(=O)O)c(OC)n4)c3Cl)c2Cl)ccc1CNC1CCN(C(C)=O)CC1 [Cmpd 389, 3-(((6-(3-(2-(4-(((1-acetylpiperidin-4-yl)amino)methyl)-3-methoxyphenyl)-3-chloropyridin-4-yl)-2-chlorophenyl)-2-methoxypyridin-3-yl)methyl)amino)propanoic acid]
19 | 272 | COc1cc(-c2nccc(-c3cccc(-c4ccc(CNC5CCN(C(C)=O)CC5)c(OC)n4)c3C#N)c2Cl)ccc1CNC1CCN(C(C)=O)CC1 [Cmpd 615, 2-(2-(4-(((1-acetylpiperidin-4-yl)amino)methyl)-3-methoxyphenyl)-3-chloropyridin-4-yl)-6-(5-(((1-acetylpiperidin-4-yl)amino)methyl)-6-methoxypyridin-2-yl)benzonitrile]
20 | 84.8 | COc1nc(-c2cccc(-c3ccnc(-c4cc(OC)c5nc(CNC(C)C)nn5c4)c3Cl)c2Cl)ccc1CNC1CCN(C(C)=O)CC1 [Cmpd 644, 1-(4-(((6-(2-chloro-3-(3-chloro-2-(2-((isopropylamino)methyl)-8-methoxy-[1,2,4]triazolo[1,5-a]pyridin-6-yl)pyridin-4-yl)phenyl)-2-methoxypyridin-3-yl)methyl)amino)piperidin-1-yl)ethan-1-one]
21 | 164 | COc1cc(-c2nccc(-c3ccnc(-c4cc(F)c(CN5CC6(CNC(=O)C6)C5)c(OC)c4)c3Cl)c2Cl)cc(F)c1CN1CC2(CNC(=O)C2)C1 [Compound 323, 2,2′-(((3,3′-Dichloro-[4,4′-bipyridine]-2,2′-diyl)bis(2-fluoro-6-methoxy-4,1-phenylene))bis(methylene))bis(2,6-diazaspiro[3.4]octan-7-one)]
22 | 89.1 | COc1nc(-c2cncc(-c3cccc(NC(=O)c4cn(C)c(=O)n(C)c4=O)c3Cl)c2Cl)ccc1CNC[C@@H]1CCC(=O)N1 [Compound 712, (S)—N-(2-Chloro-3-(4′-chloro-6-methoxy-5-((((5-oxopyrrolidin-2-yl)methyl)amino)methyl)-[2,3′-bipyridin]-5′-yl)phenyl)-1,3-dimethyl-2,4-dioxo-1,2,3,4-tetrahydropyrimidine-5-carboxamide]
23 | 81.5 | COc1nc(-c2ccnc(-c3cccc(NC(=O)c4cn(C)c(=O)n(C)c4=O)c3Cl)c2Cl)ccc1CNC[C@@H]1CCC(=O)N1 [Compound 718, (S)—N-(2-Chloro-3-(3′-chloro-6-methoxy-5-((((5-oxopyrrolidin-2-yl)methyl)amino)methyl)-[2,4′-bipyridin]-2′-yl)phenyl)-1,3-dimethyl-2,4-dioxo-1,2,3,4-tetrahydropyrimidine-5-carboxamide]
24 | 420 | COc1nc(-c2ccnc(-c3cccc(NC(=O)c4cn(C)c(=O)n(C)c4=O)c3Cl)c2Cl)ccc1CN1CC2(CNC(=O)C2)C1 [Compound 719, N-(2-Chloro-3-(3′-chloro-6-methoxy-5-((7-oxo-2,6-diazaspiro[3.4]octan-2-yl)methyl)-[2,4′-bipyridin]-2′-yl)phenyl)-1,3-dimethyl-2,4-dioxo-1,2,3,4-tetrahydropyrimidine-5-carboxamide]
